Assay results published in patent US20050059684A1, “Method for reducing residual alcohols in crystalline valacyclovir hydrochloride” (priority 2002, published 2005).
Structures can show the parent of a compound that is named as a salt.

Test: Storage stability of valacyclovir hydrochloride: N′-formylvalacyclovir impurity level by HPLC
Type: physicochemical
Details: HPLC area percent; for N′-formylvalacyclovir level (area %), T = 0: before storage; for N′-formylvalacyclovir level (area %), T = 3 month, 25° C., 60% humidity: stored three months at 25° C. and 60% RH; for N′-formylvalacyclovir level (area %), T = 3 month, 40° C., 75% humidity: stored three months at 40° C. and 75% RH
Source text: When used herein in connection with the absolute amount of an impurity, percent refers to area percent of the corresponding impurity peak on the chromatogram obtained by high pressure liquid chromatography. [drawing 2]
Impurities in valacyclovir, especially N′-formylvalacyclovir, can be measure by high pressure liquid chromatography. The chromatographic method utilizes a suitable chromatography column such as the reverse phase column Inertsil ODS-3V 5 μm 150×4.6 mm (GL Sciences, Cat. No. 5020-01731). The eluent is preferably acetonitrile (27%) and water (73%) containing 0.05% phosphoric acid (0.5 g 85% H3PO4 in 1 L water). A flow rate of about 1.0 mL/min is suitable for the separation. The column temperature can be at ambient temperature, preferably about 25° C. The detector can be a UV-spectrophotometer operating in the range of 200-600 nm, preferably about 210 nm. The injection (sample) volume is about 50 μL. The diluent used to load the sample onto the column can be, for example, the eluent.
A sample of valacyclovir hydrochloride (sample X) having circa 1700 ppm residual solvent isopropanol was divided into two portions. One portion was treated by the method of the present invention and, after treatment, had less than 500 ppm residual isopropanol (sample Y). Sample Y and the non-treated portion of sample X were each divided into two roughly equal portions. One portion of each samplewas stored at 25° C. and 60% RH for three months, the other portions of each were stored at 40° C. and 75% RH for three months. The amount of N′-formylvalacyclovir in each of the four portions after storage was determined by HPLC.

Row | SMILES | N′-formylvalacyclovir level (area %), T = 0 [area %] | N′-formylvalacyclovir level (area %), T = 3 month, 25° C., 60% humidity [area %] | N′-formylvalacyclovir level (area %), T = 3 month, 40° C., 75% humidity [area %]
1 | CC(C)C(N)C(=O)OCCOCn1cnc2c(=O)nc(N)[nH]c21 (stereo not drawn) [X, valacyclovir hydrochloride] | 0.05 | 0.08 | 0.15
2 | CC(C)C(N)C(=O)OCCOCn1cnc2c(=O)nc(N)[nH]c21 (stereo not drawn) [Y, valacyclovir hydrochloride] | 0.03 | 0.03 | 0.05
